Measurements reported in article PMC9958940 (Viruses, 2023).
Starred links: 1 amine or outer side, 2 acyl side, 3 side chain; linkers in the order of their positions; H or OH if unused. Positions of bridges follow the written chain, without caps; N, C: chain ends. Non-standard residues stand in square brackets, D forms with d. Residues, ends and D or L forms follow the SMILES beside them. *: point of attachment. hTyr(3S-OH,4S-OH,3'-OSO3H) = N[C@H](C(=O)O)[C@H](O)[C@@H](O)c1ccc(O)c(OS(=O)(=O)O)c1; Orn(4R-OH,5R-OH) = O=C([C@H](C[C@@H](O)[C@@H](O)N[*:3])N[*:1])[*:2]; Pro(3S-OH,4S-Me) = C[C@H]1CN[C@H](C(=O)O)[C@H]1O; X1 = CCCCCOc1ccc(-c2cc(-c3ccc(C(=O)*)cc3)no2)cc1; Gln(3R-OH) = NC(=O)C[C@@H](O)[C@H](N)C(=O)O; Hyp = O=C(O)[C@@H]1C[C@@H](O)CN1

How the values were obtained:
SARS-CoV-2 E406W variant = assay type: cell-based; conditions: read-out: SARS-CoV-2 RNA IC50, E406W
[1] = tested on: SARS-CoV-2 R10/E796G C799F; assay type: cell-based; conditions: read-out: SARS-CoV-2 RNA IC50, R10/E796G C799F

CCCCCOc1ccc(-c2cc(-c3ccc(C(=O)N[C@H]4C[C@@H](O)[C@@H](O)NC(=O)[C@@H]5[C@@H](O)[C@@H](C)CN5C(=O)[C@H]([C@H](O)CC(N)=O)NC(=O)[C@H]([C@H](O)[C@@H](O)c5ccc(O)c(OS(=O)(=O)O)c5)NC(=O)[C@@H]5C[C@@H](O)CN5C(=O)[C@H]([C@@H](C)O)NC4=O)cc3)no2)cc1 [Micafungin] (X1-[Orn(4R-OH,5R-OH)]T[Hyp][hTyr(3S-OH,4S-OH,3'-OSO3H)][Gln(3R-OH)][Pro(3S-OH,4S-Me)]; lactam 1-C)
IC50 (SARS-CoV-2 E406W variant): 21.7 µM
IC50 [1]: 31.3 µM
